From patent US8975289B2, “Benzyl aralkyl ether compounds, method for preparing same, intermediate compounds, use of said compounds, method for treatment and/or prevention, pharmaceutical composition and medicament containing same” (priority 2009, dated 2015)
Values after ≈ are worked out from the molar mass of the structure shown. Like-named read-outs stand apart in the source and are kept apart here.

What was measured:
Type in all cases: cell-based
Microsporum gypseum 24 = experiment: Broth microdilution MIC (M38-A), filamentous fungi, strain III; details: Nannizzia gypsea
Protocol: (§1) For the experiments of the present invention, the dermatophyte-type fungi strains that were obtained from clinical isolates and laboratory isolates, as described in Table 2 as follows, were used:
(§2) The fungal strains were grown on agar potato medium in a sloping chute at a temperature of 30° C. for a period of 7 to 15 days.
(§3) For the experiments, the compound 1-[2-(2,4-dichlorophenyl)-2-{[4-(trifluoromethyl)benzyl]oxy}ethyl]-1H-imidazole (BL-123) in the form of its nitrate salt and miconazole nitrate were used. Both compounds were dissolved in dimethyl sulfoxide (DMSO) to match the final concentration of the compound equal to or less than 1%.
(§4) The methodology used to test the sensitivity of the agent was of broth microdilution according to the method described in Standard M38-A (Reference method for broth dilution tests for determining the sensitivity to antifungal therapy for filamentous fungi; NCCLS, volume 22 No. 16, USA, 2008) as follows.
(§5) The fungus was cultivated pursuant to item 4.1. To the tubes wherein the fungi were grown, 5 mL of saline solution were added in order to extract the fungi from the agar surface. Then, this homogeneous suspension was transferred to a new tube and the colony-forming units (CFUs) were quantified according to counting methods: (i) in Sabouraud dextrose agar plates and (ii) in a Neubauer chamber.
(§6) Then, the fungi strains listed in Table 2 were inoculated in duplicate in a 96-well plate. There were used inocula of from 2 to 6×10^3 CFU/mL of fungi, per well, in a total volume of 0.2 mL of RPMI-1640 (containing L-glutamine and without bicarbonate) buffered at pH 7.0 with MOPS (acid 3-(N-morpholine) 15 propanesulfonic). The procedure was performed in a laminar flow.
(§7) The compounds to be tested were added in a serial dilution, in duplicate, in final concentrations of 16 μg/mL; 8 μg/mL; 4 μg/mL; 2 μg/mL; 1 μg/mL; 0.5 μg/mL; 0.25 μg/mL; 0.125 μg/mL; 0.0625 μg/mL; or 0.03125 μg/mL in culture medium present in each well.
(§8) The incubation of fungi with these compounds was performed by 4, 5, 6 and 7 days at temperatures from 30 to 35° C.
(§9) The fungi quantification was carried out with the growth of fungi in each well being compared to the growth occurred in the negative control by means of a mirror reading. The negative control is represented by fungi grown in culture medium in the absence of the tested compounds. The methodology of this comparison is the numerical rating to which the microdilution well was submitted. […]

Microsporum canis 373 = experiment: Broth microdilution MIC (M38-A), filamentous fungi, strain VI
Protocol: as §1, §2, §3, §4, §5, §6, §7, §8, §9

[1] = system: Trichophyton mentagrophytes 9533; experiment: Broth microdilution MIC (M38-A), filamentous fungi, strain XIII
Protocol: as §1, §2, §3, §4, §5, §6, §7, §8, §9

[2] = system: filamentous fungi strains of Table 2 (n = 13); experiment: MIC50, MIC90 and variation of MICs over the 13 strains of Table 2; details: for MIC50 / MIC90: n = 13 strains; for MIC50: read-out: MIC50 (minimum inhibitory concentration to inhibit 50% of strains), Average MIC; for MIC90: read-out: MIC90 (minimum inhibitory concentration to inhibit 90% of strains), Average MIC
Protocol: as §1, §2, §3, §4, §5, §6, §7, §8
The fungi quantification was carried out with the growth of fungi in each well being compared to the growth occurred in the negative control by means of a mirror reading. The negative control is represented by fungi grown in culture medium in the absence of the tested compounds. The methodology of this comparison is the numerical rating to which the microdilution well was submitted. In this methodology, value 4 corresponds to no reduction of growth, value 3 corresponds to a slight reduction in growth or approximately 75% of the growth of the negative control, value 2 corresponds to a standout reduction in growth or approximately 50% of growth of negative control; value 1 corresponds to a slight growth or approximately 25% of the growth of the negative control, and value 0 corresponds to optically clear or absence of growth.
In this experiment, the minimum inhibitory concentration (MIC) is considered as the lowest concentration of the agent capable of inhibiting at least 80% of the growth of colony-forming units (CFUs).

[3] = system: Candida parapsilosis 22019; experiment: Broth microdilution MIC (M27-A2), yeast, strain XV; details: strain XV 22019, 48 hours incubation; read-out: MIC
Protocol: For the experiments of the present invention (i) yeast strains obtained from clinical isolates and laboratory isolates, and (ii) bacterial strains obtained from laboratory isolates were used, as described in Table 5 as follows. The yeast strains were grown in culture medium Sabouraud Dextrose Agar maintained at a temperature of 35° C. for 48 hours. […] The compounds were dissolved in dimethyl sulfoxide (DMSO) to match the final concentration of the compound equal to or less than 1%. The methodology used to test the sensitivity of the agent was broth microdilution according to the method described in Standard M27-A2 (Reference method for broth dilution tests to determine the sensitivity of yeasts to antifungal therapy-second edition, NCCLS, volume 22 number 15, USA, 2002) as follows. […] Then the suspensions were diluted in culture medium RPMI-1640 (buffered with MOPS 0.165 mol/l) at a final concentration of 50 to 2500 CFU/mL. The diluted suspensions were inoculated in duplicate in a 96-well plate. The procedure was performed in a laminar flow. […] The incubation of fungi with these compounds was carried out for 48 hours at temperature of 30 to 35° C. […] We have agreed in this experiment that the turbid medium is the result of microbial growth and the presence of deposit and a clear medium represents the absence of microbial growth. The minimum inhibitory concentration (MIC) was defined as the lowest tested drug concentration that prevents any degree of […] growth.

[4] = system: Staphylococcus epidermidis 12228; experiment: Broth microdilution MIC (M7-A6), bacteria, strain XVII; details: Staphylococcus epidermidis; strain XVII 12228, 24 hours incubation; read-out: MIC
Protocol: (§10) For the experiments of the present invention (i) yeast strains obtained from clinical isolates and laboratory isolates, and (ii) bacterial strains obtained from laboratory isolates were used, as described in Table 5 as follows. […] The compounds were dissolved in dimethyl sulfoxide (DMSO) to match the final concentration of the compound equal to or less than 1%. The methodology used to test the sensitivity of the agent was broth microdilution according to the method described in Standard M7-A6 (Methodology of sensitivity tests to antimicrobial agents by dilution for bacteria with aerobic growth-6th Edition: NCCLS, volume 23, No. 2, USA, 2003), as follows. […] Then the suspensions were diluted in Mueller Hinton culture medium to a final concentration of 5×10^4CFU/mL. The diluted suspensions were inoculated in 0.1 mL in duplicates in […] plates. The procedure was performed in a laminar flow. […] Incubation of fungi with these compounds was carried out for 24 hours at a temperature of 30 to 35° C. […] We have agreed in this experiment that the turbid medium is the result of microbial growth and the presence of deposit and a clear medium represents the absence of microbial growth. The minimum inhibitory concentration (MIC) was defined as the lowest tested drug concentration that prevents any degree of bacterial growth.

[5] = system: Staphylococcus aureus 6538; experiment: Broth microdilution MIC (M7-A6), bacteria, strain XVIII; details: Staphylococcus aureus; strain XVIII 6538, 24 hours incubation; read-out: MIC
Protocol: as §10

[6] = 96 h, strain III 24, reading Day 4, average of four experiments
[7] = 168 h, strain III 24, reading Day 7, average of four experiments
[8] = 96 h, strain VI 373, reading Day 4, average of four experiments
[9] = 168 h, strain VI 373, reading Day 7, average of four experiments
[10] = 96 h, strain XIII 9533, reading Day 4, average of four experiments
[11] = 168 h, strain XIII 9533, reading Day 7, average of four experiments

## FC(F)(F)c1ccc(COC(Cn2ccnc2)c2ccc(Cl)cc2Cl)cc1 (stereo not drawn) [BL-123, 1-[2-(2,4-dichlorophenyl)-2-{[4-(trifluoromethyl)benzyl]oxy}ethyl]-1H-imidazole]
Microsporum gypseum 24; [6]
  MIC: 0.25 µg/mL (≈ 0.602 µM)
Microsporum gypseum 24; [7]
  MIC: 0.25 µg/mL (≈ 0.602 µM)
Microsporum canis 373; [8]
  MIC: 0.125 µg/mL (≈ 0.301 µM)
Microsporum canis 373; [9]
  MIC: 0.5 µg/mL (≈ 1.2 µM)
[1]; [10]
  MIC: 0.03 µg/mL (≈ 0.0722 µM)
[1]; [11]
  MIC: 0.125 µg/mL (≈ 0.301 µM)
[2]; 13 different strains, seven different species
  Inhibitory effect on growth (in words): exerts an inhibitory effect on growth
[2]; 96 h, Day 4
  MIC50: 0.25 µg/mL (≈ 0.602 µM)
  MIC90: 4 µg/mL (≈ 9.63 µM)
[2]; 168 h, Day 7
  MIC50: 0.5 µg/mL (≈ 1.2 µM)
  MIC90: 8 µg/mL (≈ 19.3 µM)
[3]
  MIC: 4 µg/mL (≈ 9.63 µM)
[4]
  MIC: 4 µg/mL (≈ 9.63 µM)
[5]
  MIC: 4 µg/mL (≈ 9.63 µM)

## Clc1ccc(COC(Cn2ccnc2)c2ccc(Cl)cc2Cl)c(Cl)c1 (stereo not drawn) [Miconazole, miconazole, reference compound]
Microsporum gypseum 24; [6]
  MIC: 0.05 µg/mL (≈ 0.12 µM)
Microsporum gypseum 24; [7]
  MIC: 0.05 µg/mL (≈ 0.12 µM)
Microsporum canis 373; [8]
  MIC: 0.5 µg/mL (≈ 1.2 µM)
Microsporum canis 373; [9]
  MIC: 1 µg/mL (≈ 2.4 µM)
[1]; [10]
  MIC: 0.06 µg/mL (≈ 0.144 µM)
[1]; [11]
  MIC: 0.125 µg/mL (≈ 0.3 µM)
[2]; 96 h, Day 4
  MIC50: 0.5 µg/mL (≈ 1.2 µM)
  MIC90: > 16 µg/mL
[2]; 168 h, Day 7
  MIC50: 1 µg/mL (≈ 2.4 µM)
  MIC90: > 16 µg/mL
[3]
  MIC: 2 µg/mL (≈ 4.81 µM)
[4]
  MIC: 2 µg/mL (≈ 4.81 µM)
[5]
  MIC: 2 µg/mL (≈ 4.81 µM)
